# Assay results taken from patent US20230159511A1, “TETRAHYDROISOQUINOLINE COMPOUNDS AS NRF2 ACTIVATORS” (C4X Discovery Limited, priority 2020, published 2023).
# Like-named read-outs stand apart in the source and are kept apart here.
# How the values were obtained:
# [1] = target: T1, human KEAP1 (N-term, residues 321-609) (Homo sapiens, UniProt Q14145); test: KEAP1 Kelch Fluorescence Polarization (FP) Assay; assay type: binding; settings: inhibition of Kelch domain-NRF2 interaction; 2 nM FITC-labelled NRF2 peptide, 25 nM KEAP1, 1 h room temperature; compounds below 10 nM cannot be differentiated
# T1 construct: human KEAP1 (N-term, residues 321-609)
# T1 sequence (Q14145 321-609): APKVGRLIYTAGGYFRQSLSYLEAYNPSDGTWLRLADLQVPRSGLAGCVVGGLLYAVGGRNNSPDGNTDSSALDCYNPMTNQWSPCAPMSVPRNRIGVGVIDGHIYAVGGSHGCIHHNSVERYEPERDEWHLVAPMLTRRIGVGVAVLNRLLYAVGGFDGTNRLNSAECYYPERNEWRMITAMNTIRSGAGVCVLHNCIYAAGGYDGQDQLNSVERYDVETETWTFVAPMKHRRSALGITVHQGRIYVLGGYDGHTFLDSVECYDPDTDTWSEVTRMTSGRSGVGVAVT
# Procedure, shortened: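 Compounds in 12-point curves (top 10 μM) displaced 2 nM FITC-labelled NRF2 peptide from 25 nM KEAP1 residues 321-609 over 1 h at room temperature. Polarization read at 470/530 nm, window set by 50 μM unlabelled peptide; four-parameter fit gave IC50, floor 10 nM.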
# [2] = tested on: NRF2 mediated gene NAD(P)H:quinone acceptor oxidoreductase 1 (NQO1) in BEAS-2B cells; test: Beas2B NQO1 mRNA Cell Based Assay; set-up: species or system human; settings: BEAS-2B cells, compound for 24 h, increase in NQO1 mRNA compared to vehicle (0.1% DMSO) control, read-out: EC50
# Procedure, shortened: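 BEAS-2B cells treated 24 h with compound; NQO1 mRNA measured by one-step TaqMan RT-PCR on crude lysates, normalised to beta actin by ΔΔCT. Fold increase over 0.1% DMSO vehicle; EC50 from four-parameter logistic fit.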
Structure (SMILES),IC50 [1] [nM],EC50 ([2]; Homo sapiens) [nM],EC50 [2] [nM]
"NC(=O)[C@H]1CCCC[C@H]1C(=O)N1CCc2cccc(OCCCC(=O)N3CCCC3)c2[C@H]1CN1C(=O)c2ccccc2C1=O [Example 1, (1S,2R)-2-((S)-1-((1 ,3-dioxoisoindolin-2-yl)methyl)-8-(4-oxo-4-(pyrrolidin-1-yl)butoxy)-1,2,3,4-tetrahydroisoquinoline-2-carbonyl)cyclohexane-1-carboxamide]",901,2030,–
"CNC(=O)[C@H]1CCCC[C@H]1C(=O)N1CCc2c(Cl)ccc(OCc3noc4ccccc34)c2[C@H]1CN1CCCC1=O [Example 52, (1S,2R)-2-((S)-8-(benzo[d]isoxazol-3-ylmethoxy)-5-chloro-1-((2-oxopyrrolidin-1-yl)methyl)-1,2,3,4-tetrahydroisoquinoline-2-carbonyl)-N-methylcyclohexane-1-carboxamide]",38,285,–
"CNC(=O)[C@H]1CCCC[C@H]1C(=O)N1CCc2c(Cl)ccc(OCc3nn(C)c4ccccc34)c2[C@H]1CN1CCCC1=O [Example 81, (1S,2R)-2-((S)-5-chloro-8-((1-methyl-1H-indazol-3-yl)methoxy)-1-((2-oxopyrrolidin-1-yl)methyl)-1,2,3,4-tetrahydroisoquinoline-2-carbonyl)-N-methylcyclohexane-1-carboxamide]",723,> 10000,–
"CNC(=O)[C@H]1CCCC[C@H]1C(=O)N1CCc2cccc(O[C@H]3CCN(C(=O)c4cncs4)C3)c2[C@H]1CN1C(=O)c2ccccc2C1=O [Example 17, (1S,2R)-2-((S)-1-((1,3-dioxoisoindolin-2-yl)methyl)-8-(((S)-1-(thiazole-5-carbonyl)pyrrolidin-3-yl)oxy)-1,2,3,4-tetrahydroisoquinoline-2-carbonyl)-N-methylcyclohexane-1-carboxamide]",28,3070,–
"CNC(=O)[C@H]1CCCC[C@H]1C(=O)N1CCc2c(Cl)ccc(OCc3cn4cccnc4n3)c2[C@H]1CN1CCCC1=O [Example 75, (1S,2R)-2-((S)-5-chloro-8-(imidazo[1,2-a]pyrimidin-2-ylmethoxy)-1-((2-oxopyrrolidin-1-yl)methyl)-1,2,3,4-tetrahydroisoquinoline-2-carbonyl)-N-methylcyclohexane-1-carboxamide]",73,2170,–
"CNC(=O)[C@H]1CCCC[C@H]1C(=O)N1CCc2c(Cl)ccc(OCc3cccnc3)c2[C@H]1CN1CCCC1=O [Example 60, (1S,2R)-2-((S)-5-chloro-1-((2-oxopyrrolidin-1-yl)methyl)-8-(pyridin-3-ylmethoxy)-1,2,3,4-tetrahydroisoquinoline-2-carbonyl)-N-methylcyclohexane-1-carboxamide]",72,650,–
"CNC(=O)[C@H]1CCCC[C@H]1C(=O)N1CCc2c(Cl)ccc(OCc3cccnn3)c2[C@H]1CN1CCCC1=O [Example 61, (1S,2R)-2-((S)-5-chloro-1-((2-oxopyrrolidin-1-yl)methyl)-8-(pyridazin-3-ylmethoxy)-1,2,3,4-tetrahydroisoquinoline-2-carbonyl)-N-methylcyclohexane-1-carboxamide]",34,1080,–
"O=C(NCC(F)(F)CO)[C@H]1CCCC[C@H]1C(=O)N1CCc2c(Cl)ccc(OCc3noc4ccccc34)c2[C@H]1CN1CCCC1=O [Example 78, (1S,2R)-2-((S)-8-(benzo[d]isoxazol-3-ylmethoxy)-5-chloro-1-((2-oxopyrrolidin-1-yl)methyl)-1,2,3,4-tetrahydroisoquinoline-2-carbonyl)-N-(2,2-difluoro-3-hydroxypropyl)cyclohexane-1-carboxamide]",110,> 10000,–
"CNC(=O)[C@H]1CCCC[C@H]1C(=O)N1CCc2c(Cl)ccc(OCc3nnn(C)c3C(F)F)c2[C@H]1CN1Cc2ccccc2C1=O [Example 76, (1S,2R)-2-((S)-5-chloro-8-((5-(difluoromethyl)-1-methyl-1H-1,2,3-triazol-4-yl)methoxy)-1-((1-oxoisoindolin-2-yl)methyl)-1,2,3,4-tetrahydroisoquinoline-2-carbonyl)-N-methylcyclohexane-1-carboxamide]",11,166,–
"CNC(=O)[C@H]1CCCC[C@H]1C(=O)N1CCc2c(Cl)ccc(OCc3ccc4c(C)noc4n3)c2[C@H]1CN1CCCC1=O [Example 71, (1S,2R)-2-((S)-5-chloro-8-((3-methylisoxazolo[5,4-b]pyridin-6-yl)methoxy)-1-((2-oxopyrrolidin-1-yl)methyl)-1,2,3,4-tetrahydroisoquinoline-2-carbonyl)-N-methylcyclohexane-1-carboxamide]",17,116,–
"CNC(=O)[C@]1(C)CCCC[C@@H]1C(=O)N1CCc2c(Cl)ccc(OCc3nnn(C)c3C(F)F)c2[C@@H]1CN1CC2(CC2)CC1=O [Example 98, (1R,2S)-2-((R)-5-chloro-8-((5-(difluoromethyl)-1-methyl-1 H-1,2,3-triazol-4-yl)methoxy)-1-((6-oxo-5-azaspiro[2.4]heptan-5-yl)methyl)-1,2,3,4-tetrahydroisopuinoline-2-carbonyl)-N,1-dimethylcyclohexane-1-carboxamide]",6,–,41
"CNC(=O)[C@H]1CCCC[C@H]1C(=O)N1CCc2c(Cl)ccc(OCc3cncnc3)c2[C@H]1CN1CCCC1=O [Example 64, (1S,2R)-2-((S)-5-chloro-1-((2-oxopyrrolidin-1-yl)methyl)-8-(pyrimidin-5-ylmethoxy)-1,2,3,4-tetrahydroisoquinoline-2-carbonyl)-N-methylcyclohexane-1-carboxamide]",41,5750,–
"CNC(=O)[C@H]1CCCC[C@H]1C(=O)N1CCc2c(Br)ccc(OCc3nnn(C)c3C(F)F)c2[C@H]1CN1Cc2ccccc2C1=O [Example 56, (1S,2R)-2-((S)-5-bromo-8-((5-(difluoromethyl)-1-methyl-1H-1,2,3-triazol-4-yl)methoxy)-1-((1-oxoisoindolin-2-yl)methyl)-1,2,3,4-tetrahydroisoquinoline-2-carbonyl)-N-methylcyclohexane-1-carboxamide]",13,124,–

# Further lines, with some results ahead:
IC50 [1] [nM],Structure (SMILES),EC50 ([2]; Homo sapiens) [nM],EC50 [2] [nM]
4070,"CNC(=O)C1OCCC1C(=O)N1CCc2c(Cl)ccc(OCc3nnn(C)c3C(F)F)c2[C@H]1CN1CCCC1=O (single isomer, unassigned) [Example 82]",1740,–
851,"CNC(=O)[C@@]1(C)CCCC[C@H]1C(=O)N1CCc2c(Cl)ccc(OCc3cn(C)nn3)c2[C@H]1CN1CCCC1=O [Example 93, (1S,2R)-2-((S)-5-chloro-8-((1-methyl-1H-1,2,3-triazol-4-yl)methoxy)-1-((2-oxopyrrolidin-1-yl)methyl)-1,2,3,4-tetrahydroisoquinoline-2-carbonyl)-N,1-dimethylcyclohexane-1-carboxamide]",> 10000,–
6.4,"Cn1nnc(COc2ccc(Cl)c3c2[C@@H](CN2CC4(CC4)CC2=O)N(C(=O)[C@@H]2CCCC[C@]2(C)C(N)=O)CC3)c1C(F)F [Example 100, (1S,2R)-2-((S)-5-chloro-8-((5-(difluoromethyl)-1-methyl-1H-1,2,3-triazol-4-yl)methoxy)-1-((6-oxo-5-azaspiro[2.4]heptan-5-yl)methyl)-1,2,3,4-tetrahydroisoquinoline-2-carbonyl)-1-methylcyclohexane-1-carboxamide]",26,–
7,"Cc1c(COc2c(F)cc(Cl)c3c2[C@@H](CN2CC4(CC4)CC2=O)N(C(=O)[C@@H]2CCCC[C@]2(C)C(N)=O)CC3)nnn1C [Example 112, (1S,2R)-2-((S)-5-chloro-8-((1,5-dimethyl-1H-1,2,3-triazol-4-yl)methoxy)-7-fluoro-1-((6-oxo-5-azaspiro[2.4]heptan-5-yl)methyl)-1,2,3,4-tetrahydroisoquinoline-2-carbonyl)-1-methylcyclohexane-1-carboxamide]",99,–
9.1,"CNC(=O)[C@H]1CCCC[C@H]1C(=O)N1CCc2c(Cl)ccc(OCc3nnn(C)c3C(F)F)c2[C@H]1CN1CC2(CC2)CC1=O [Example 114, (1S,2R)-2-((S)-5-chloro-8-((5-(difluoromethyl)-1-methyl-1H-1,2,3-triazol-4-yl)methoxy)-1-((6-oxo-5-azaspiro[2.4]heptan-5-yl)methyl)-1,2,3,4-tetrahydroisoquinoline-2-carbonyl)-N-methylcyclohexane-1-carboxamide]",230,–
7.8,"CNC(=O)[C@@]1(C)CCC[C@H]1C(=O)N1CCc2c(Cl)ccc(OCc3nnn(C)c3C(F)F)c2[C@H]1CN1CCCC1=O [Example 85, (1S,2R)-2-((S)-5-chloro-8-((5-(difluoromethyl)-1-methyl-1H-1,2,3-triazol-4-yl)methoxy)-1-((2-oxopyrrolidin-1-yl)methyl)-1,2,3,4-tetrahydroisoquinoline-2-carbonyl)-N,1-dimethylcyclopentane-1-carboxamide]",330,–
17,"CNC(=O)[C@@]1(C)CCCC[C@H]1C(=O)N1CCc2c(Cl)ccc(OCc3nnn(C)c3COC)c2[C@H]1CN1C[C@H](C)CC1=O [Example 105, (1S,2R)-2-((S)-5-chloro-8-((5-(methoxymethyl)-1-methyl-1H-1,2,3-triazol-4-yl)methoxy)-1-(((R)-4-methyl-2-oxopyrrolidin-1-yl)methyl)-1,2,3,4-tetrahydroisoquinoline-2-carbonyl)-N,1-dimethylcyclohexane-1-carboxamide]",790,–
